In US9133262B2, “Somatostatin antagonists” (Ipsen Pharma S.A.S., priority 1996, dated 2015):
Positions of bridges follow the written chain, without caps; N, C: chain ends. Non-standard residues stand in square brackets, D forms with d. Residues, ends and D or L forms follow the SMILES beside them. Phe(F5) = N[C@@H](Cc1c(F)c(F)c(F)c(F)c1F)C(=O)O; Bip = N[C@@H](Cc1ccc(-c2ccccc2)cc1)C(=O)O; dDip = N[C@@H](C(=O)O)C(c1ccccc1)c1ccccc1; Phe(4-CN) = N#Cc1ccc(C[C@H](N)C(=O)O)cc1; Phe(4-Cl) = N[C@@H](Cc1ccc(Cl)cc1)C(=O)O; Dip = N[C@H](C(=O)O)C(c1ccccc1)c1ccccc1; Phe(4-I) = N[C@@H](Cc1ccc(I)cc1)C(=O)O; 2Nal = N[C@@H](Cc1ccc2ccccc2c1)C(=O)O; Phe(2-F) = N[C@@H](Cc1ccccc1F)C(=O)O; Igl = N[C@H](C(=O)O)C1Cc2ccccc2C1; 3Pal = N[C@@H](Cc1cccnc1)C(=O)O; Tle = CC(C)(C)[C@H](N)C(=O)O

Test system: rat pituitary cells
Format: cell-based
Details: 3 h
From the text: Bioassay on the In Vitro Release of Growth Hormone
(a) Rat Pituitary Cell Dispersion
Pituitaries from adult Charles River CD male rats (Wilmington, Mass.) housed under controlled conditions were dispersed and cultured using aseptic technique by modification of previously described methods (Hoefer, M. T., et al., Mol. Cell. Endocrinol. 35:229 (1984); Ben-Jonathan, N., et al., Methods Enzymol. 103:249 (1983); and Heiman, M. L., et al., Endocrinology 116:410 (1985)). Pituitaries were removed from sacrificed rats, sectioned, and then placed into a siliconized, liquid scintillation vial containing 2 ml 0.2% trypsin (Worthington Biochemicals, Freehold, N.J.) in sterile-filtered Krebs-Ringer bicarbonate buffer supplemented with 1% bovine serum albumin, 14 mM glucose, modified Eagle medium (MEM) vitamin solution, and MEM amino acids (Gibco Laboratories, Grand Island, N.Y.) (KRBGA). All glassware was siliconized as described by Sayers, et al., Endocrinology 88:1063 (1971). The fragments were incubated in a water bath for 35 min at 37° C. with agitation. The vial contents then were poured into a scintillation vial containing 2 ml 0.1% DNase (Sigma Chemical Co., St. Louis, Mo.) in KRBGA and incubated for 2 min at 37° C. with agitation. After incubation, the tissue was decanted into a 15 ml centrifuge tube and allowed to settle. Medium was discarded, and pituitary sections were washed 3 times with 1 ml fresh-KRBGA. The cells were then dispersed in 2 ml 0.05% LBI (lima bean trypsin inhibitor, Worthington Biochemicals) by gently drawing the fragments into and expelling them out of a siliconized, fire polished Pasteur pipette. Dispersed cells were then filtered through a 630 μm diameter Nylon mesh (Tetko, Elmsford, N.Y.) into a fresh 15 ml centrifuge tube. An additional 2 ml of 0.05% LBI solution was used to rinse the first tube and was transferred to the second tube with filtering.
The dispersed cells were then further diluted with approximately 15 ml sterile-filtered Dulbecco's modified Eagle medium (GIBCO), which was supplemented with 2.5% fetal calf serum (GIBCO), 3% horse serum (GIBCO), 10% fresh rat serum (stored on ice for no longer than 1 hr) from the pituitary donors, 1% MEM non-essential amino acids (GIBCO), and gentamycin (10 ng/ml; Sigma) and nystatin (10,000 U/ml; GIBCO). The cells were poured into a 50 ml round-bottomed glass extraction flask with a large diameter opening and then randomly plated at a density of approximately 200,000 cells per well (Co-star cluster 24; Rochester Scientific Co., Rochester, N.Y.). The plated cells were maintained in the above Dulbecco's medium in a humidified atmosphere of 95% air and 5% CO2 at 37° C. for 4-5 days.
(c) Experimental Incubation and IC50 Determination
In preparation for a hormone challenge, the cells were washed 3 times with medium 199 (GIBCO) to remove old medium and floating cells. Each treatment well contained a total volume of 1 ml medium 199 containing 1% BSA (fraction V; Sigma) with treatments as described below. Each antagonist candidate was tested using a single 24-well cell culture plate. Each treatment was performed in triplicate. Each plate contained 8 treatment groups: one 1 nM growth hormone releasing factor (GRF) (1-29)NH2-stimulated control group; one 1 nM somatostatin-inhibited control group in the presence of 1 nM GRF(1-29)NH2; and 6 doses of a given antagonist in the presence of both 1 nM SRIF and 1 nM GRF per plate. After 3 hrs at 37° C. in a air/carbon dioxide atmosphere (95/5%), the medium was removed and stored at −20° C. until radioimmunoassayed for growth hormone content. IC50's of each antagonist versus 1 nM SRIF were calculated using a computer program (SigmaPlot, Jandel Scientific, San Rafael, Calif.) with the maximum response constrained to the value of the 1 nM GRF(1-29)NH2-stimulated control.

Row | Structure (SMILES) | IC50
1 | CC(C)[C@@H]1NC(=O)[C@H](CCCCN)NC(=O)[C@@H](Cc2c[nH]c3ccccc23)NC(=O)[C@H](Cc2cccnc2)NC(=O)[C@H](NC(=O)[C@@H](N)Cc2c(F)c(F)c(F)c(F)c2F)CSSC[C@@H](C(=O)N[C@@H](Cc2c(F)c(F)c(F)c(F)c2F)C(N)=O)NC1=O [Analog No. 16, H2—F5-Phe-D-Cys-Pal-D-Trp-Lys-Val-Cys-F5-Phe-NH2] (H-[Phe(F5)][dC][3Pal][dW]KVC[Phe(F5)]-NH2; disulfide 2-7) | 820 nM
2 | CC(C)[C@@H]1NC(=O)[C@H](CCCCN)NC(=O)[C@@H](Cc2c[nH]c3ccccc23)NC(=O)[C@H](Cc2c[nH]cn2)NC(=O)[C@H](NC(=O)[C@@H](N)Cc2ccccc2F)CSSC[C@@H](C(=O)N[C@@H](Cc2ccccc2F)C(N)=O)NC1=O [Analog No. 41, H2-o-F-Phe-D-Cys-His-D-Trp-Lys-Val-Cys-o-F-Phe-NH2] (H-[Phe(2-F)][dC]H[dW]KVC[Phe(2-F)]-NH2; disulfide 2-7) | 210 nM
3 | CC(C)[C@@H]1NC(=O)[C@H](CCCCN)NC(=O)[C@@H](Cc2c[nH]c3ccccc23)NC(=O)[C@H](Cc2cccnc2)NC(=O)[C@H](NC(=O)[C@@H](N)Cc2ccc(I)cc2)CSSC[C@@H](C(=O)N[C@@H](Cc2ccc(I)cc2)C(N)=O)NC1=O [Analog No. 53, H2-Iph-D-Cys-Pal-D-Trp-Lys-Val-Cys-Iph-NH2] (H-[Phe(4-I)][dC][3Pal][dW]KVC[Phe(4-I)]-NH2; disulfide 2-7) | 2.9 nM
4 | CC(C)[C@@H]1NC(=O)[C@H](CCCCN)NC(=O)[C@@H](Cc2c[nH]c3ccccc23)NC(=O)[C@H](Cc2cccnc2)NC(=O)[C@H](NC(=O)[C@@H](N)Cc2ccc(Cl)cc2)CSSC[C@@H](C(=O)N[C@@H](Cc2ccc3ccccc3c2)C(N)=O)NC1=O [Analog No. 55, H2-p-Cl-Phe-D-Cys-Pal-D-Trp-Lys-Val-Cys-β-Nal-NH2] (H-[Phe(4-Cl)][dC][3Pal][dW]KVC[2Nal]-NH2; disulfide 2-7) | 2.6 nM
5 | CC(C)[C@@H]1NC(=O)[C@H](CCCCN)NC(=O)[C@@H](Cc2c[nH]c3ccccc23)NC(=O)[C@H](Cc2c[nH]cn2)NC(=O)[C@H](NC(=O)[C@@H](N)Cc2c(F)c(F)c(F)c(F)c2F)CSSC[C@@H](C(=O)N[C@@H](Cc2c(F)c(F)c(F)c(F)c2F)C(N)=O)NC1=O [Analog No. 11, H2—F5-Phe-D-Cys-His-D-Trp-Lys-Val-Cys-F5-Phe-NH2] (H-[Phe(F5)][dC]H[dW]KVC[Phe(F5)]-NH2; disulfide 2-7) | 720 nM
6 | CC(C)[C@@H]1NC(=O)[C@H](CCCCN)NC(=O)[C@@H](Cc2c[nH]c3ccccc23)NC(=O)[C@H](Cc2cccnc2)NC(=O)[C@H](NC(=O)[C@H](N)C(c2ccccc2)c2ccccc2)CSSC[C@@H](C(=O)N[C@@H](Cc2ccc3ccccc3c2)C(N)=O)NC1=O [Analog No. 18, H2-D-Dip-D-Cys-Pal-D-Trp-Lys-Val-Cys-β-Nal-NH2] (H-[dDip][dC][3Pal][dW]KVC[2Nal]-NH2; disulfide 2-7) | 380 nM
7 | CC(C)[C@@H]1NC(=O)[C@H](CCCCN)NC(=O)[C@@H](Cc2c[nH]c3ccccc23)NC(=O)[C@H](Cc2cccnc2)NC(=O)[C@H](NC(=O)[C@@H](N)Cc2ccc(C#N)cc2)CSSC[C@@H](C(=O)N[C@@H](Cc2ccc(C#N)cc2)C(N)=O)NC1=O [Analog No. 47, H2-p-CN-Phe-D-Cys-Pal-D-Trp-Lys-Val-Cys-p-CN-Phe-NH2] (H-[Phe(4-CN)][dC][3Pal][dW]KVC[Phe(4-CN)]-NH2; disulfide 2-7) | 53 nM
8 | C[C@@H](O)[C@H](NC(=O)[C@@H]1CSSC[C@@H](NC(=O)[C@@H](N)Cc2ccccc2)C(=O)N[C@@H](Cc2cccnc2)C(=O)N[C@H](Cc2c[nH]c3ccccc23)C(=O)N[C@@H](CCCCN)C(=O)N[C@@H]([C@@H](C)O)C(=O)N1)C(N)=O [Analog No. 6, H2-Phe-D-Cys-Pal-D-Trp-Lys-Thr-Cys-Thr-NH2] (H-F[dC][3Pal][dW]KTCT-NH2; disulfide 2-7) | 900 nM
9 | CC(C)(C)[C@@H]1NC(=O)[C@H](CCCCN)NC(=O)[C@@H](Cc2c[nH]c3ccccc23)NC(=O)[C@H](Cc2cccnc2)NC(=O)[C@H](NC(=O)[C@@H](N)Cc2ccc(Cl)cc2)CSSC[C@@H](C(=O)N[C@@H](Cc2ccc3ccccc3c2)C(N)=O)NC1=O [Analog No. 56, H2-p-Cl-Phe-D-Cys-Pal-D-Trp-Lys-Tle-Cys-β-Nal-NH2] (H-[Phe(4-Cl)][dC][3Pal][dW]K[Tle]C[2Nal]-NH2; disulfide 2-7) | 1.8 nM
10 | CC(C)[C@@H]1NC(=O)[C@H](CCCCN)NC(=O)[C@@H](Cc2c[nH]c3ccccc23)NC(=O)[C@H](Cc2cccnc2)NC(=O)[C@H](NC(=O)[C@@H](N)Cc2ccccc2)CSSC[C@@H](C(=O)N[C@@H](Cc2ccc3ccccc3c2)C(N)=O)NC1=O [Analog No. 4, H2-Phe-D-Cys-Pal-D-Trp-Lys-Val-Cys-β-Nal-NH2] (H-F[dC][3Pal][dW]KVC[2Nal]-NH2; disulfide 2-7) | 30 nM
11 | CC[C@H](C)[C@@H]1NC(=O)[C@H](CCCCN)NC(=O)[C@@H](Cc2c[nH]c3ccccc23)NC(=O)[C@H](Cc2ccc(O)cc2)NC(=O)[C@H](NC(=O)[C@@H](N)Cc2ccc(-c3ccccc3)cc2)CSSC[C@@H](C(=O)N[C@@H](Cc2ccc(-c3ccccc3)cc2)C(N)=O)NC1=O [Analog No. 36, H2-Bip-D-Cys-Tyr-D-Trp-Lys-Ile-Cys-Bip-NH2] (H-[Bip][dC]Y[dW]KIC[Bip]-NH2; disulfide 2-7) | 1030 nM
12 | CC(C)[C@@H]1NC(=O)[C@H](CCCCN)NC(=O)[C@@H](Cc2c[nH]c3ccccc23)NC(=O)[C@H](Cc2ccc(O)cc2)NC(=O)[C@H](NC(=O)[C@@H](N)Cc2ccc3ccccc3c2)CSSC[C@@H](C(=O)N[C@@H](C(N)=O)C(c2ccccc2)c2ccccc2)NC1=O [Analog No. 48, H2-β-Nal-D-Cys-Tyr-D-Trp-Lys-Val-Cys-D-Dip-NH2] (H-[2Nal][dC]Y[dW]KVC[dDip]-NH2; disulfide 2-7) | 50 nM
13 | CC(C)[C@@H]1NC(=O)[C@H](CCCCN)NC(=O)[C@@H](Cc2c[nH]c3ccccc23)NC(=O)[C@H](Cc2c[nH]cn2)NC(=O)[C@H](NC(=O)[C@@H](N)C(c2ccccc2)c2ccccc2)CSSC[C@@H](C(=O)N[C@H](C(N)=O)C(c2ccccc2)c2ccccc2)NC1=O [Analog No. 21, H2-Dip-D-Cys-His-D-Trp-Lys-Val-Cys-Dip-NH2] (H-[Dip][dC]H[dW]KVC[Dip]-NH2; disulfide 2-7) | 970 nM
14 | C[C@@H]1NC(=O)[C@H](CCCCN)NC(=O)[C@@H](Cc2c[nH]c3ccccc23)NC(=O)[C@H](Cc2cccnc2)NC(=O)[C@H](NC(=O)[C@@H](N)Cc2ccc3ccccc3c2)CSSC[C@@H](C(=O)N[C@@H](Cc2ccc3ccccc3c2)C(N)=O)NC1=O [Analog No. 34, H2-β-Nal-D-Cys-Pal-D-Trp-Lys-Ala-Cys-β-Nal-NH2] (H-[2Nal][dC][3Pal][dW]KAC[2Nal]-NH2; disulfide 2-7) | 420 nM
15 | CC(=O)N[C@@H](Cc1ccc2ccccc2c1)C(=O)N[C@@H]1CSSC[C@@H](C(=O)N[C@@H](Cc2ccc3ccccc3c2)C(N)=O)NC(=O)[C@H](C(C)C)NC(=O)[C@H](CCCCN)NC(=O)[C@@H](Cc2c[nH]c3ccccc23)NC(=O)[C@H](Cc2ccc(O)cc2)NC1=O [Analog No. 5, (H)(CH3CO)-β-Nal-D-Cys-Tyr-D-Trp-Lys-Val-Cys-β-Nal-NH2] (Ac-[2Nal][dC]Y[dW]KVC[2Nal]-NH2; disulfide 2-7) | 60 nM
16 | CC(C)[C@@H]1NC(=O)[C@H](CCCCN)NC(=O)[C@@H](Cc2c[nH]c3ccccc23)NC(=O)[C@H](Cc2cccnc2)NC(=O)[C@H](NC(=O)[C@@H](N)C2Cc3ccccc3C2)CSSC[C@@H](C(=O)N[C@H](C(N)=O)C2Cc3ccccc3C2)NC1=O [Analog No. 44, H2-Igl-D-Cys-Pal-D-Trp-Lys-Val-Cys-Igl-NH2] (H-[Igl][dC][3Pal][dW]KVC[Igl]-NH2; disulfide 2-7) | 21 nM
